Assay results from ChEMBL document CHEMBL1649584, “Overexpression of the naturally occurring blaOXA-51 gene in Acinetobacter baumannii mediated by novel insertion sequence ISAba9” (2009).
Converted amounts (≈) assume the structure as drawn.

Legend:
Type in all cases: functional
[1] = tested on: Acinetobacter baumannii; test: Antimicrobial activity against Acinetobacter baumannii isolate Ab3 overexpressing beta-lactamase OXA-51 gene mediated by novel insertion sequence ISAba9
[2] = tested on: Acinetobacter baumannii; test: Antimicrobial activity against Acinetobacter baumannii isolate Ab133 overexpressing beta-lactamase OXA-51 gene mediated by novel insertion sequence ISAba9
[3] = tested on: Acinetobacter baumannii; test: Antimicrobial activity against Acinetobacter baumannii isolate Ab153 overexpressing beta-lactamase OXA-51 gene mediated by novel insertion sequence ISAba9
[4] = tested on: Acinetobacter baumannii; test: Antimicrobial activity against Acinetobacter baumannii isolate Ab33 overexpressing beta-lactamase OXA-51 gene mediated by novel insertion sequence ISAba9
[5] = tested on: Acinetobacter baumannii; test: Antimicrobial activity against Acinetobacter baumannii isolate Ab63 overexpressing beta-lactamase OXA-51 gene mediated by novel insertion sequence ISAba9
[6] = tested on: Acinetobacter baumannii; test: Antimicrobial activity against Acinetobacter baumannii isolate Ab91 overexpressing beta-lactamase OXA-51 gene mediated by novel insertion sequence ISAba9
[7] = tested on: Acinetobacter baumannii; test: Antimicrobial activity against Acinetobacter baumannii isolate Ab177 overexpressing beta-lactamase OXA-51 gene mediated by novel insertion sequence ISAba9
[8] = tested on: Acinetobacter baumannii; test: Antimicrobial activity against Acinetobacter baumannii isolate Ab23 overexpressing beta-lactamase OXA-51 gene mediated by novel insertion sequence ISAba9
[9] = tested on: Acinetobacter baumannii; test: Antimicrobial activity against Acinetobacter baumannii isolate Ab150 overexpressing beta-lactamase OXA-51 gene mediated by novel insertion sequence ISAba9
[10] = tested on: Acinetobacter baumannii; test: Antimicrobial activity against Acinetobacter baumannii isolate Ab58 overexpressing beta-lactamase OXA-51 gene mediated by novel insertion sequence ISAba9
[11] = tested on: Acinetobacter baumannii; test: Antimicrobial activity against Acinetobacter baumannii isolate Ab30 overexpressing beta-lactamase OXA-51 gene mediated by novel insertion sequence ISAba9
[12] = tested on: Acinetobacter baumannii; test: Antimicrobial activity against Acinetobacter baumannii isolate Ab12 overexpressing beta-lactamase OXA-51 gene mediated by novel insertion sequence ISAba9
[13] = tested on: Acinetobacter baumannii; test: Antimicrobial activity against Acinetobacter baumannii isolate Ab11 overexpressing beta-lactamase OXA-51 gene mediated by novel insertion sequence ISAba9
[14] = tested on: Acinetobacter baumannii; test: Antimicrobial activity against Acinetobacter baumannii isolate Ab108 overexpressing beta-lactamase OXA-51 gene mediated by novel insertion sequence ISAba9
[15] = tested on: Acinetobacter baumannii; test: Antimicrobial activity against Acinetobacter baumannii isolate Ab2 overexpressing beta-lactamase OXA-51 gene mediated by novel insertion sequence ISAba9
[16] = tested on: Acinetobacter baumannii; test: Antimicrobial activity against Acinetobacter baumannii isolate Ab5 overexpressing beta-lactamase OXA-51 gene mediated by novel insertion sequence ISAba9
[17] = tested on: Acinetobacter baumannii; test: Antimicrobial activity against Acinetobacter baumannii isolate Ab114 overexpressing beta-lactamase OXA-51 gene mediated by novel insertion sequence ISAba9
[18] = tested on: Acinetobacter baumannii; test: Antimicrobial activity against Acinetobacter baumannii isolate Ab181 overexpressing beta-lactamase OXA-51 gene mediated by novel insertion sequence ISAba9
[19] = tested on: Acinetobacter baumannii; test: Antimicrobial activity against Acinetobacter baumannii isolate Ab185 overexpressing beta-lactamase OXA-51 gene mediated by novel insertion sequence ISAba9
[20] = tested on: Acinetobacter baumannii; test: Antimicrobial activity against Acinetobacter baumannii isolate Ab168 overexpressing beta-lactamase OXA-51 gene mediated by novel insertion sequence ISAba9

| SMILES | MIC [1] | MIC [2] | MIC [3] | MIC [4] | MIC [5] | MIC [6] | MIC [7] | MIC [8] | MIC [9] | MIC [10] | MIC [11] | MIC [12] | MIC [13] | MIC [14] | MIC [15] | MIC [16] | MIC [17] | MIC [18] | MIC [19] | MIC [20] |
| --- | --- | --- | --- | --- | --- | --- | --- | --- | --- | --- | --- | --- | --- | --- | --- | --- | --- | --- | --- | --- |
| C[C@@H](O)[C@H]1C(=O)N2C(C(=O)O)=C(S[C@@H]3CN[C@H](C(=O)N(C)C)C3)[C@H](C)[C@H]12 [MEROPENEM] | 8 µg/mL (≈ 20.9 µM) | 8 µg/mL (≈ 20.9 µM) | 16 µg/mL (≈ 41.7 µM) | 64 µg/mL (≈ 167 µM) | 16 µg/mL (≈ 41.7 µM) | 16 µg/mL (≈ 41.7 µM) | 8 µg/mL (≈ 20.9 µM) | 64 µg/mL (≈ 167 µM) | 16 µg/mL (≈ 41.7 µM) | 16 µg/mL (≈ 41.7 µM) | 64 µg/mL (≈ 167 µM) | 64 µg/mL (≈ 167 µM) | 64 µg/mL (≈ 167 µM) | 16 µg/mL (≈ 41.7 µM) | 4 µg/mL (≈ 10.4 µM) | 64 µg/mL (≈ 167 µM) | 16 µg/mL (≈ 41.7 µM) | 32 µg/mL (≈ 83.4 µM) | 24 µg/mL (≈ 62.6 µM) | 12 µg/mL (≈ 31.3 µM) |
| C[C@@H](O)[C@H]1C(=O)N2C(C(=O)O)=C(SCCNC=N)C[C@H]12 [IMIPENEM ANHYDROUS] | 8 µg/mL (≈ 26.7 µM) | 8 µg/mL (≈ 26.7 µM) | 16 µg/mL (≈ 53.4 µM) | 64 µg/mL (≈ 214 µM) | 16 µg/mL (≈ 53.4 µM) | 16 µg/mL (≈ 53.4 µM) | 8 µg/mL (≈ 26.7 µM) | 64 µg/mL (≈ 214 µM) | 16 µg/mL (≈ 53.4 µM) | 16 µg/mL (≈ 53.4 µM) | 64 µg/mL (≈ 214 µM) | 64 µg/mL (≈ 214 µM) | 64 µg/mL (≈ 214 µM) | 16 µg/mL (≈ 53.4 µM) | 4 µg/mL (≈ 13.4 µM) | 64 µg/mL (≈ 214 µM) | 16 µg/mL (≈ 53.4 µM) | 32 µg/mL (≈ 107 µM) | 24 µg/mL (≈ 80.2 µM) | 12 µg/mL (≈ 40.1 µM) |
